The source of these data is PubChem BioAssay AID1963426 (Molecular Pharmacology Branch, DTP, NCI, 2024).

Each structure is given as a SMILES string. Several values for one entry are separate records, joined by “and”; a condition that tells them apart may be missing. Identical values can stand only once. A value given as a limit tells only on which side of the number the result lay.

The assay deals with 186277-243-T-J2-PDC complex spheroid growth, % test/control. The experiment in a line: Anticancer human tumor 186277-243-T-J2-PDC patient-derived colon adenocarcinoma cell line growth inhibition [Asc]. The conditions noted are these: for viability, T/C: stronger effect = lower value. Summed up: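 Complex solid-tumor spheroids incorporating human endothelial and mesenchymal stem cells received single agents or combinations over half-log dilution ranges anchored to clinical Cmax.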

Setting [1] is: curve of first compound, second compound 0.1 µM.
Setting [2] is: curve of first compound, second compound 0.316 µM.
The mark [3] stands for this setting: curve of first compound, second compound 1 µM.
The mark [4] stands for this setting: curve of first compound, second compound 3.16 µM.
Where [5] appears, read: curve of first compound, second compound 10 µM.
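Note: spheroids exposed to agents for 7 days.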
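Throughout, for viability, T/C: 100% = DMSO vehicle control wells.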

Turning to `O=C(c1cc(Cc2n[nH]c(=O)c3ccccc23)ccc1F)N1CCN(C(=O)C2CC2)CC1` + Cc1c(S(C)(=O)=O)c(-c2cc(F)cc(N3CCN(c4ccc(NS(=O)(=O)c5ccc(NC(CCN6CCC(C(=O)OCCCP(=O)(O)O)CC6)CSc6ccccc6)c(S(=O)(=O)C(F)(F)F)c5)cc4)CC3)c2)c(-c2ccc(Cl)cc2)n1C(C)C, the half-inhibitory concentration (IC50) (as a rule, the midpoint of a concentration-inhibition curve) under setting [1] is > 10 µM; the IC50 under setting [2] was > 10 µM; the half-inhibitory concentration (IC50) under setting [3] was 7.98 µM; the half-inhibitory concentration (IC50) under setting [4] was 4.39 µM; the IC50 under setting [5] came out at 4.74 µM. For the same compound, the viability, T/C (as a rule, the result in the treated group divided by that in the control group, in per cent) is, setting by setting: (second compound 0.1 µM, first compound 0.0316 µM) 96.9%; (second compound 0.1 µM, first compound 0.1 µM) 87.8%; (second compound 0.1 µM, first compound 0.316 µM) 99.3%; (second compound 0.1 µM, first compound 1 µM) 114%; (second compound 0.1 µM, first compound 3.16 µM) 103%; (second compound 0.1 µM, first compound 10 µM) 91.8%. Further, the viability, T/C is, setting by setting: (second compound 0.316 µM, first compound 0.0316 µM) 89.1%; (second compound 0.316 µM, first compound 0.1 µM) 101%; (second compound 0.316 µM, first compound 0.316 µM) 96.2%; (second compound 0.316 µM, first compound 1 µM) 104%; (second compound 0.316 µM, first compound 3.16 µM) 86.3%; (second compound 0.316 µM, first compound 10 µM) 65.8%. In addition, the viability, T/C is, setting by setting: (second compound 1 µM, first compound 0.0316 µM) 99.7%; (second compound 1 µM, first compound 0.1 µM) 101%; (second compound 1 µM, first compound 0.316 µM) 96.2%; (second compound 1 µM, first compound 1 µM) 96.5%; (second compound 1 µM, first compound 3.16 µM) 86.7%; (second compound 1 µM, first compound 10 µM) 40.7%. Also, the viability, T/C is 96% (second compound 3.16 µM, first compound 0.0316 µM); 93.5% (second compound 3.16 µM, first compound 0.1 µM); 109% (second compound 3.16 µM, first compound 0.316 µM); 93% (second compound 3.16 µM, first compound 1 µM); 60.5% (second compound 3.16 µM, first compound 3.16 µM); 24% (second compound 3.16 µM, first compound 10 µM). The viability, T/C reads like this: (second compound 10 µM, first compound 0.0316 µM) 92.6%; (second compound 10 µM, first compound 0.1 µM) 95.1%; (second compound 10 µM, first compound 0.316 µM) 96.5%; (second compound 10 µM, first compound 1 µM) 88.9%; (second compound 10 µM, first compound 3.16 µM) 67.6%; (second compound 10 µM, first compound 10 µM) 17.9%.
As for `Cc1c(S(C)(=O)=O)c(-c2cc(F)cc(N3CCN(c4ccc(NS(=O)(=O)c5ccc(NC(CCN6CCC(C(=O)OCCCP(=O)(O)O)CC6)CSc6ccccc6)c(S(=O)(=O)C(F)(F)F)c5)cc4)CC3)c2)c(-c2ccc(Cl)cc2)n1C(C)C` (stereo not drawn), the IC50 (compound alone, run of 09/27/2022) was > 10 µM.
In the case of `Cc1nc(N2CCC3(CC2)COC(C)C3N)c(CO)nc1Sc1ccnc(N)c1Cl` (stereo not drawn) + Cc1c(S(C)(=O)=O)c(-c2cc(F)cc(N3CCN(c4ccc(NS(=O)(=O)c5ccc(NC(CCN6CCC(C(=O)OCCCP(=O)(O)O)CC6)CSc6ccccc6)c(S(=O)(=O)C(F)(F)F)c5)cc4)CC3)c2)c(-c2ccc(Cl)cc2)n1C(C)C, the IC50 is > 3 µM under setting [1]; > 3 µM under setting [2]; > 3 µM under setting [3]; > 3 µM under setting [4]; > 3 µM under setting [5]. In addition, the viability, T/C (second compound 0.1 µM, first compound 0.00949 µM) is 112%; the viability, T/C (second compound 0.1 µM, first compound 0.03 µM) is 99%; the viability, T/C (second compound 0.1 µM, first compound 0.0949 µM) was 106%; the viability, T/C (second compound 0.1 µM, first compound 0.3 µM) is 116%; the viability, T/C (second compound 0.1 µM, first compound 0.949 µM) was 98.1%; the viability, T/C (second compound 0.1 µM, first compound 3 µM) is 96.1%. The viability, T/C is 116% (second compound 0.316 µM, first compound 0.00949 µM); 94.9% (second compound 0.316 µM, first compound 0.03 µM); 112% (second compound 0.316 µM, first compound 0.0949 µM); 117% (second compound 0.316 µM, first compound 0.3 µM); 107% (second compound 0.316 µM, first compound 0.949 µM); 110% (second compound 0.316 µM, first compound 3 µM). Also, the viability, T/C (second compound 1 µM, first compound 0.00949 µM) is 116%; the viability, T/C (second compound 1 µM, first compound 0.03 µM) was 97.7%; the viability, T/C (second compound 1 µM, first compound 0.0949 µM) was 114%; the viability, T/C (second compound 1 µM, first compound 0.3 µM) is 121%; the viability, T/C (second compound 1 µM, first compound 0.949 µM) is 126%; the viability, T/C (second compound 1 µM, first compound 3 µM) is 107%. Further, the viability, T/C runs as follows: (second compound 3.16 µM, first compound 0.00949 µM) 112%; (second compound 3.16 µM, first compound 0.03 µM) 104%; (second compound 3.16 µM, first compound 0.0949 µM) 111%; (second compound 3.16 µM, first compound 0.3 µM) 115%; (second compound 3.16 µM, first compound 0.949 µM) 111%; (second compound 3.16 µM, first compound 3 µM) 121%. In addition, the viability, T/C is 97.6% (second compound 10 µM, first compound 0.00949 µM); 96.3% (second compound 10 µM, first compound 0.03 µM); 115% (second compound 10 µM, first compound 0.0949 µM); 104% (second compound 10 µM, first compound 0.3 µM); 100% (second compound 10 µM, first compound 0.949 µM); 111% (second compound 10 µM, first compound 3 µM).
In the case of `Cc1nc(N2CCC3(CC2)COC(C)C3N)c(CO)nc1Sc1ccnc(N)c1Cl` (stereo not drawn), the viability, T/C is 92.7% and 111% and 93.3% (compound 0.00949 µM); 89.2% and 95.6% and 104% (compound 0.03 µM); 81% and 91.5% and 95.9% (compound 0.0949 µM); 102% and 103% and 96.9% (compound 0.3 µM); 102% and 114% and 95% (compound 0.949 µM); 109% (2×) and 93.4% (compound 3 µM). Besides, the IC50 (curve of compound) is > 3 µM.
